Read-outs that look alike come from different tables or passages of the source.
Experiments:
[1] = Stability at room temperature determined by LC/MS; type: physicochemical; details: after three months
Experimental: (§1) The hydrochloride (3.42 g, 9.89 mmol) was crystallized by dissolution in a mixture of ethanol and toluene (1/10 v/v, 110 mL) at 80° C. and the mixture allowed to cool to room temperature. Large needle-like crystals started to form after standing at room temperature for 48 h. The solution was filtered after standing for 7 days at room temperature. The product (6) was isolated as a white crystalline solid (2.7 g, 79% yield). ^1H-NMR (400 MHz, CD3OD): δ 7.16-7.24 (m, 3H), 4.81-4.85 (dd, J=12.4, 4.4 Hz, 1H), 4.59-4.63 (dd, J=12.0 Hz, 3.2 Hz, 1H), 4.45-4.49 (dd, J=4.4, 2.8 Hz, 1H), 2.98-3.02 (m, 2H), 1.18-1.19 (d, J=7.2 Hz, 12H). MS (ESI) m/z 310.3 (M+H)^+. Melting point: 188.1-189.1° C.

[2] = Solubility of compound (6) in water and PBS; type: physicochemical
Experimental: as §1

[3] = rats, oral dosing; cited from earlier work

## CC(C)c1cccc(C(C)C)c1OC(=O)OC[C@H](N)C(=O)O.Cl [compound (6), (S)-2-Amino-3-(2,6-Diisopropylphenoxy-carbonyloxy)-Propanoic Acid Hydrochloride]
[1]; aqueous solution
  degradation as an aqueous solution: no degradation
[1]; solid
  degradation as a solid: no degradation
[2]; phosphate buffered saline (PBS), aqueous buffer, read-out: solubility in phosphate buffered saline (PBS)
  solubility: 8180 µg/mL
[2]; water, read-out: solubility in water
  solubility: 7580 µg/mL

## CC(C)c1cccc(C(C)C)c1O [propofol, 2,6-diisopropylphenol]
[3]
  administered drug undergoing first pass metabolism: approximately 90%
